Experimental data: PubChem BioAssay (NCI)
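Briefly, cells in 96-well plates were exposed to five compound concentrations for 48 h, and endpoints were estimated by linear interpolation. At the TGI there is no net growth.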

Key:
Assay in all cases: NCI-60 cell line screen, 48 h
ACHN renal = tested on: ACHN renal
MALME-3M melanoma = tested on: MALME-3M melanoma
SK-MEL-2 melanoma = tested on: SK-MEL-2 melanoma
OVCAR-3 ovarian = tested on: OVCAR-3 ovarian
SNB-19 CNS = tested on: SNB-19 CNS
HOP-62 NSCLC = tested on: HOP-62 NSCLC
HL-60(TB) leukemia = tested on: HL-60(TB) leukemia
NCI/ADR-RES ovarian = tested on: NCI/ADR-RES ovarian
T-47D breast = tested on: T-47D breast
HCT-15 colon = tested on: HCT-15 colon
SK-OV-3 ovarian = tested on: SK-OV-3 ovarian
HT29 colon = tested on: HT29 colon
HCC-2998 colon = tested on: HCC-2998 colon
SF-295 CNS = tested on: SF-295 CNS
MDA-N = tested on: MDA-N
M14 melanoma = tested on: M14 melanoma
RPMI-8226 leukemia = tested on: RPMI-8226 leukemia
SF-268 CNS = tested on: SF-268 CNS

SMILES	TGI (ACHN renal) [µM]	TGI (MALME-3M melanoma) [µM]	TGI (SK-MEL-2 melanoma) [µM]	TGI (OVCAR-3 ovarian) [µM]	TGI (SNB-19 CNS) [µM]	TGI (HOP-62 NSCLC) [µM]	TGI (HL-60(TB) leukemia) [µM]	TGI (NCI/ADR-RES ovarian) [µM]	TGI (T-47D breast) [µM]	TGI (HCT-15 colon) [µM]	TGI (SK-OV-3 ovarian) [µM]	TGI (HT29 colon) [µM]	TGI (HCC-2998 colon) [µM]	TGI (SF-295 CNS) [µM]	TGI (MDA-N) [µM]	TGI (M14 melanoma) [µM]	TGI (RPMI-8226 leukemia) [µM]	TGI (SF-268 CNS) [µM]
COc1ccc(-n2nnc3c(C#N)c(-c4ccccc4)c(C)n3c2=O)cc1	> 100	> 100	83.8	> 100	> 100	> 100	68.2	> 100	> 100	> 100	> 100	> 100	> 100	> 100	> 100	> 100	> 100	> 100
CN(C)CCCc1cccnc1	> 100	> 100	> 100	> 100	> 100	> 100	> 100	> 100	> 100	> 100	> 100	> 100	> 100	> 100	> 100	> 100	> 100	> 100
C[C@@H](C(=O)O)c1ccc(-c2ccccc2)c(F)c1	> 100	> 100	> 100	> 100	> 100	> 100	> 100	> 100	> 100	> 100	> 100	> 100	> 100	> 100	> 100	> 100	> 100	> 100
Nc1ccn([C@H]2CO[C@@H](CO)O2)c(=O)n1	7.87	> 100	> 100	> 100	> 100	> 57.9	> 67.2	> 100	> 100	> 100	> 100	> 100	> 100	> 100	> 100	19.1	> 100	> 100
Cc1cc(=O)oc2c(CNC(C)C(=O)O)c(O)ccc12 (stereo not given)	> 100	> 100	> 100	> 100	> 100	> 100	> 100	> 100	> 100	> 100	> 100	> 100	> 100	> 100	> 100	> 100	> 100	> 100
COC(=O)c1ccccc1/C=C1\Cc2cc3c(cc2C1=O)CCC3	> 100	> 100	> 100	> 100	> 100	> 100	> 100	> 100	> 100	> 100	> 100	> 100	> 100	> 100	78.8	> 100	> 100	> 100
Oc1ccc(-c2c3ccccc3c(-c3ccc(OCCBr)cc3)c3ccccc23)cc1	90.7	33.8	63.5	33.7	84.3	50.6	70.1	75.6	> 100	77.4	> 100	43.2	> 100	32.7	59.8	37	63.5	> 100
CC1=NN(C(=O)CC(=O)Nc2ccccc2C)C(=O)C1N=Nc1ccc(S(=O)(=O)c2ccc(N=NC3C(=O)N(C(=O)CC(=O)Nc4ccccc4C)N=C3C)cc2)cc1 (stereo not given)	> 100	> 100	> 100	> 100	> 100	> 100	> 100	> 100	> 100	> 100	> 100	> 100	> 100	> 100	> 100	> 100	> 100	> 100
CC(C)(C)c1ccc(-c2nc3ccccc3c(=O)o2)cc1	> 100	> 100	66.6	62.1	> 100	> 100	48.8	> 100	> 100	> 100	> 100	> 100	85.5	> 100	> 100	> 100	93.3	> 100
CC(C)(C)[Si](C)(C)OCC1OC(n2cc(F)c(=O)[nH]c2=O)CC1O[Si](C)(C)C(C)(C)C (stereo not given)	21.8	31.2	29.7	32.5	25.3	30	12.5	35.6	12.7	20.4	28.3	> 100	3.48	21.4	18.4	30.9	12.9	29.8
